Experimental findings from PMC11434796, “An Innovative Bio-Vehicle for Resveratrol and Tocopherol Based on Quinoa 11S Globulin—Nanocomplex Design and Characterization” (Pharmaceutics, 2024) are described below.

One may read the Kd as a measure of binding affinity in units of concentration.

Structures are written as SMILES.

The test has as its target T1, quinoa 11S globulin (11S; chenopodin).
T1 construct: gene 11S globulin A; native, from defatted quinoa seed flour (seed origin Peru); alkaline extraction, pH 4.5 precipitation, size-exclusion FPLC; acidic (30-35 kDa) and basic (17-20 kDa) subunits disulfide-linked, about 55 kDa; isoform mixture not resolved; docking used amaranth 3qac as homologue
Put plainly: isothermal titration calorimetry. The test is classed as binding, Chenopodium quinoa. The note with it: distilled water pH 9, 25 °C, n 0.91. An excerpt:
isothermal titration calorimetry on quinoa 11S globulin (11S; chenopodin)
Background: In ITC the heat of successive injections is recorded.

Compound `Oc1ccc(/C=C/c2cc(O)cc(O)c2)cc1` [RSV, 3,5,4′-trihydroxystilbene] showed a dissociation constant Kd (protein 36.4 µM) of 48.2 ± 1 µM. Also, the “Ka (M^-1)” value (same titration as the Kd) is listed as “(2.1 ± 0.3) × 10^4”.
